Patent US7087626B2, “Pyrrole derivatives as pharmaceutical agents” (Eli Lilly and Company, priority 2001, dated 2006)
Where a name gives a salt, the structure may show the parent alone.

Columns and labels:
Format in all cases: biochemical
KDR (VEGFR2) = biological target: T1, KDR (VEGFR2) (Homo sapiens, UniProt P35968); experiment: KDR (VEGFR2) in vitro kinase assay; conditions: 1 ug enzyme, 1 uM ATP, 30° C., 20 min
T1 construct: The 6×-HIS tagged cytoplasmic kinase domain of KDR was expressed and purified from Sf9 insect cell lysates; 6xHis; made in house; host or cells: Sf9 insect cells
Procedure: KDR (VEGFR2) Purification and in vitro Kinase Assay
The 6×-HIS tagged cytoplasmic kinase domain of KDR was expressed and purified from Sf9 insect cell lysates as described above with the following modification:
1× kinase buffer for chromatography washes and elution was changed to 100 mM HEPES pH 7.5, 10 mM MnCl2 and 5 mM β-mercaptoethanol. The resulting material was approximately 40% pure and had tyrosine autophosphorylation activity.
Reactions: 1 ug enzyme in 1×KB, compound dilution series in 1×KB/16% DMSO (20 uM to 1 nM final concentration with 4% DMSO final concentration), reactions were started by adding ATP mix (1 uM ATP/1 uCi ^33P-[…]-ATP final concentrations) in 1×KB.
Reactions were incubated at 30° C. for 20 min. The reactions were stopped and quantitated using standard TCA/BSA precipitation onto Millipore FC glass fiber filter plates and by liquid scintillation counting on a MicroBeta JET.

p38α/SAPK2α = biological target: T2, p38α/SAPK2α (Homo sapiens, UniProt Q16539); experiment: p38α in vitro kinase assay; conditions: 5 nM p38α, 62.5 uM EGFR substrate, 100 uM ATP, 30° C., 40 min
T2 construct: purchased Upstate Biotechnology 14-251
Procedure: p38α in vitro Kinase Assay
Active p38α/SAPK2α was purchased from Upstate Biotechnology (cat#14-251). A known p38α substrate from EGFR was used in the assay (Young, et al. (1997) JBC 272: 12116-12121).
Reactions were performed in 1× kinase buffer (25 mM Tris-HCl pH 7.5, 5 mM β-glycerophosphate, 2 mM DTT, 0.1 mM Na3VO4, 10 mM MgCl2, 1 uM Microcystin) with 5 nM p38α, 62.5 uM substrate, 40 uM to 0.2 nM compound dilution series in 1×KB/16% DMSO (final 4% DMSO concentration). Reactions were started by addition of 100 uM ATP (final concentration) with 1 uCi ^33P-γ-ATP in 1×KB and incubated at 30° C. for 40 min. Reactions were stopped with H3PO4 and quantitated on Millipore PH phosphocellulose filter plates by liquid scintillation counting on a MicroBeta JET.

[1] = biological target: T3, TGF-β Type I (RIT204D) receptor (Homo sapiens, UniProt P36897, T204D); experiment: TGF-β Receptor I (RIT204D) in vitro kinase reaction; conditions: 6×-HIS cytoplasmic kinase domain, 4 uM ATP, 30° C., 1 hr
T3 construct: The 6×-HIS tagged cytoplasmic kinase domain of each receptor was expressed and purified from Sf9 insect cell lysates; 6xHis; made in house; host or cells: Sf9 insect cells
T3 sequence (P36897 148-503 T204D limits assumed): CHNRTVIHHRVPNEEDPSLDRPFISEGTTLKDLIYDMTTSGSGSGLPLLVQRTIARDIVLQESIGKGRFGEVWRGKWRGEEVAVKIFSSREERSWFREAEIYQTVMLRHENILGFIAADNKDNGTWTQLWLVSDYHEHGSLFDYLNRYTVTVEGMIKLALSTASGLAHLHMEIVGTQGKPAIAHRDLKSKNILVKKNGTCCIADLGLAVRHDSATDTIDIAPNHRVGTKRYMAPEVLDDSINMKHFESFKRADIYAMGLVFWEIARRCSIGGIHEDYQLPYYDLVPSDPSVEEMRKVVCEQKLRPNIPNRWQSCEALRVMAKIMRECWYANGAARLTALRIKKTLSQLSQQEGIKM
Procedure: TGF-β Receptor I and II Purification and in vitro Kinase Reactions
For TGF-β Type I (RIT204D) and Type II (RII WT) Receptors: The 6×-HIS tagged cytoplasmic kinase domain of each receptor was expressed and purified from Sf9 insect cell lysates as briefly described below:
Cell pellets after 48-72 hrs of infection were lysed in lysis buffer (LB: 50 mM Tris pH 7.5, 150 mM NaCl, 50 mM NaF, 0.5% NP40 with freshly added 20 mM, β-mercaptoethanol, 10 mM imidazole, 1 mM PMSF, 1×EDTA-free Complete Protease Inhibitor (Boehringer Mannheim).
Reactions: 170-200 nM enzyme in 1×KB, compound dilution series in 1×KB/16% DMSO (20 uM to 1 nM final concentration with 4% DMSO final concentration), reactions started by adding ATP mix (4 uM ATP/1 uCi ^33P-[…]-ATP final concentrations) in 1×KB.
Reactions were incubated at 30° C. for 1 hr RIT204D or 40 min for RII WT. Reactions were stopped and quantitated using standard TCA/BSA precipitation onto Millipore FB glass fiber filter plates and by liquid scintillation counting on a MicroBeta JET.

T1 sequence (P35968 834-1162 limits assumed, species assumed): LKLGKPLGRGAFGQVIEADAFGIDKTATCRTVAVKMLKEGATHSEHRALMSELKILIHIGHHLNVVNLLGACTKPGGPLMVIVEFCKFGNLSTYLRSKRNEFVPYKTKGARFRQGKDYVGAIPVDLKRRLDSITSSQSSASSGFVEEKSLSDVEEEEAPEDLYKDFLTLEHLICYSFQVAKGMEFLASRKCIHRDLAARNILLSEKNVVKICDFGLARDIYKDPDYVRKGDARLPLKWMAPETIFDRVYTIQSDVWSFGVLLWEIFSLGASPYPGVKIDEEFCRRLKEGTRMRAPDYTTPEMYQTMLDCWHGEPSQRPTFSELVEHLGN
T2 sequence (Q16539 whole entry): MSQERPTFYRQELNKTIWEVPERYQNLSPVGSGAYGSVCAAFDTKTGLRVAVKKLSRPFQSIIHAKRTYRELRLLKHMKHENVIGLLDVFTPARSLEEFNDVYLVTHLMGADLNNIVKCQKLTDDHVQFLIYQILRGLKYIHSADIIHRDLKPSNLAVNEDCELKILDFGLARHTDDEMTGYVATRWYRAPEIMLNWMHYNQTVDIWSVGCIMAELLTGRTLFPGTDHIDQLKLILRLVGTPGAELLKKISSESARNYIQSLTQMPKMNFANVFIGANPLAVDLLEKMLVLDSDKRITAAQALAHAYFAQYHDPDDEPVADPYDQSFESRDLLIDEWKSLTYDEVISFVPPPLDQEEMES

| Structure (SMILES) | IC50 (KDR (VEGFR2)) | IC50 (p38α/SAPK2α) | IC50 [1] |
| --- | --- | --- | --- |
| Cc1cccc(-c2nn3c(c2-c2ccnc4cc(C(=O)NCCCN(C)C)ccc24)CCC3)n1 [4-[2-(6-Methyl-pyridin-2-yl)-5,6-dihydro-4H-pyrrolo[1,2-b]pyrazol-3-yl]-quinoline-7-carboxylic acid (3-dimethylamino-propyl)-amide] | < 20 µM |  |  |
| c1ccc(-c2nn3c(c2-c2ccnc4ccccc24)OCC3)nc1 [4-(6-Pyridin-2-yl-2,3-dihydro-pyrazolo[5,1-b]oxazol-7-yl)-quinoline dioxylate salt] | < 20 µM |  |  |
| NCCCOc1ccc2c(-c3c(-c4ccccn4)nn4c3CCC4)ccnc2c1 [3-[4-(2-pyridin-2-yl-5,6-dihydro-4H-pyrrolo[1,2-b]pyrazol-3-yl)-quinolin-7-yloxy]-propylamine] | < 20 µM |  |  |
| COC(=O)c1ccc2c(-c3c(-c4cccc(C)n4)nn4c3CCC4)ccnc2c1 [4-[2-(6-Methyl-pyridin-2-yl)-5,6-dihydro-4H-pyrrolo[1,2-b]pyrazol-3-yl]-quinoline-7-carboxylic acid methyl ester] | < 20 µM |  |  |

The next lines start with the values.

| IC50 (KDR (VEGFR2)) | IC50 (p38α/SAPK2α) | IC50 [1] | Structure (SMILES) |
| --- | --- | --- | --- |
| < 20 µM |  |  | c1ccc(-c2nn3c(c2-c2ccnc4cc(OCCCn5ccnn5)ccc24)CCC3)nc1 [4-(2-Pyridin-2-yl-5,6-dihydro-4H-pyrrolo[1,2-b]pyrazol-3-yl)-7-(3-[1,2,3]triazol-1-yl-propoxy)-quinoline] |
| < 20 µM |  |  | CCN(CC)CCCOc1ccc2c(-c3c(-c4cccc(C)n4)nn4c3CCC4)ccnc2c1 [Diethyl-(3-{4-[2-(6-methyl-pyridin-2-yl)-5,6-dihydro-4H-pyrrolo[1,2-b]pyrazol-3-yl]-quinolin-7-yloxy}-propyl)-amine] |
| < 20 µM | < 20 µM |  | COC(=O)c1ccc2c(-c3c(-c4ccccn4)nn4c3CCC4)ccnc2c1 [4-[2-Pyridin-2-yl-5,6-dihydro-4H-pyrrolo[1,2-b]pyrazol-3-yl]-quinoline-7-carboxylic acid methyl ester] |
| < 20 µM |  | < 20 µM | CN(C)C(=O)c1cccc(Oc2ccc3c(-c4c(-c5ccccn5)nn5c4CCC5)ccnc3c2)c1 [N,N-Dimethyl-3-[4-(2-pyridin-2-yl-5,6-dihydro-4H-pyrrolo[1,2-b]pyrazol-3-yl)-quinolin-7-yloxy]-benzamide] |
| < 20 µM |  |  | Oc1ccc2c(-c3c(-c4ccccn4)nn4c3CCC4)ccnc2c1 [4-(2-Pyridin-2-yl-5,6-dihydro-4H-pyrrolo[1,2-b]pyrazol-3-yl)-quinolin-7-ol] |
| < 20 µM |  |  | CN(CCCOc1ccc2c(-c3c(-c4ccccn4)nn4c3CCC4)ccnc2c1)Cc1ccccc1 [Benzyl-methyl-{3-[4-(2-pyridin-2-yl-5,6-dihydro-4H-pyrrolo[1,2-b]pyrazol-3-yl)-quinolin-7-yloxy]-propyl}-amine] |
